# B1: BDNF: Brain-derived neurotrophic factor, positive control, purchased from Peprotech (protein, UniProt P23560 19-247, looked up)
# Neurotrophic factor BDNF …: APMKEANIRGQGGLAYPGVRTHGTLESVNGPKAGSRGLTSLADTFEHVIEELLDEDQKVRPNEENNKDADLYTSRVMLSSQVPLEPPLLFLLEEYKNYLDAANMSMRVRRHSDPARRGELSVCDSISEWVTAADKKTAVDMSGGTVTVLEKVPVSKGQLKQYFYETKCNPMGYTKEGCRGIDKRHWNSQCRTTQSYVRALTMDSKKRIGWRFIRIDTSCVCTLTIKRGR
# Tests used:
# [1] = tested on: rats with permanent cerebral ischemia; test: Cerebral infarction volume by TTC staining in rats with permanent cerebral ischemia; format: in vivo, SD rats; conditions: 0.078 mg/kg intravenous, after 7 days of ischemia
# Method: (§1) SD rats, male, about 220-250 g, were provided by the Experimental Animal Center of Medical College of Xi'an Jiaotong University. Rats were randomly divided into groups of 14 animals/group. The experiment included a sham group, a model group, a positive control Edaravone group and test compound groups 1-5.12 hours before the operation, the rats were fasted and were free to drink water, and then used for the modeling method of middle cerebral artery occlusion with thread plug. The rats were fixed on a wooden board after anesthesia, the common carotid artery was ligated proximally, the external carotid artery was ligated distally, and the main internal carotid artery into skull was retained. A ligature line was reserved at the bifurcation of the internal carotid artery for temporarily clamping the distal end of the internal carotid artery using an arterial clip. A 3-0 nylon thread with a length of 5 cm and a spherical shape with a diameter of 0.3 mm at the tip was inserted into the common carotid artery through a small incision at the bifurcation. The arterial clamp was loosened, and the thread plug was slowly advanced to 18˜20 mm. When there was resistance, the progress of the thread was stopped. At this time, the nylon thread plug entered the middle artery and blocked the blood flow, and then the ischemic phase began. The skin was sutured. In the sham operation group, the same procedure was executed, except that no thread plug was inserted.
# (§2) Administering was performed at 0 h, 3 h, 6 h and 12 h after ischemia, and then administering was performed once a day for 7 consecutive days. The test compound was prepared into a 4 mg/mL solution with 1% CMC-Na solution and administered by gavage. The edaravone group received an intravenous dose of 0.078 mg/kg.
# 3) Percentage of cerebral infarction volume after 7 days of ischemia: TTC staining was used to observe the infarct area.
# The rats in each group were sacrificed by spinal dislocation […]. The brain tissue was quickly peeled off and placed in the refrigerator at −20° C. to freeze to an appropriate hardness to remove the olfactory bulb, cerebellum and low brain stem. Continuous coronary slices were performed at 1 mm intervals, to obtain a total of 5 slices. The slices were placed in 0.5% triphenyltetrazolium chloride (TTC) in phosphate buffer (pH=7.4) and incubated in a 37° C. incubator without light for 15 min, and then fixed in paraformaldehyde and observed (fixed time should be within 24 h). The normal brain tissue is rosy red, and infarcted brain tissue is pale. After taking the picture, the slice was scanned to save the image. The area of cerebral infarction and the total area of slices were calculated using Image J processing software.
# Cerebral infarction volume (%)=(volume of the contralateral hemisphere of the operation−volume of the uninfarcted portion of the hemisphere of the occlusion)/volume of the contralateral hemisphere of the operation×100%
# (§3) (2) Statistical analysis of data: SPSS18.0 statistical software was used for statistical analysis and the data of each group was expressed as the mean standard error (x±SEM). One-way ANOVA and multiple comparisons between groups were used to compare the averages of measurement data among multiple groups. Rank score test was used for behavioral grading data, and Kaplan-Meier method was used for mortality. P<0.05 was considered statistically significant.
# [2] = tested on: rats with permanent cerebral ischemia; test: Neurobehavioral scoring in rats with permanent cerebral ischemia (MCAO thread plug); format: in vivo, SD rats; conditions: 0.078 mg/kg intravenous
# Method: as §1, §2
# 2) The rats were lifted at its tail about 1 foot off the ground to observe the condition of both forelimbs. The rats were placed on a level ground and pushed on both shoulders to observe the difference in resistance on both sides. The rats were placed on the ground to observe the walking. The assessment was conducted using a five-grade four-point scoring method (0 to 4 points). The higher the score, the more severe the neurobehavioral damage.
# 0 point: the behavior is completely normal;
# 1 point: when the rat is lifted at its tail off the ground, the forelimb on the opposite side of the operation rotates and folds inwardly.
# 2 points: when the rat is placed on a level ground and pushed on both shoulders to observe the difference in resistance on both sides, the resistance on the opposite side of the operation reduces;
# 3 points: when the rat is placed on the ground to the walking, it circles around the opposite side of the operation;
# 4 points: The injury is so severe that the rat is unable to move independently.
# as §3
# AKT signaling pathway = test: Western blotting of p-AKT and t-AKT in primary cortical neuron cells; format: cell-based, mouse; conditions: 10 min at 37° C., Vehicle = 100, n = 3
# Method: (§4) N171-82Q WT male mice were mated with female B6C3F1/J hybrid mice. B6C3F1/J mice 18 days after pregnancy were anesthetized with isoflurane and dissected to remove embryos, which were then placed in a 10 cm Petri dish containing Leibovitz's buffer. The head of the embryo was cut off, and the brain was peeled off to obtain the whole mouse brain, which was then placed in a new 10 cm Petri dish containing Leibovitz's buffer. The neurocortex of the brain was separated and placed in a 15 mL centrifuge tube containing 3 mL Leibovitz's buffer. The centrifuge tube was centrifuged at 1000 rpm for 1 minute, and the Leibovitz's buffer was gently removed from the centrifuge tube, and then 750 μL of 0.25% trypsin-EDTA and 75 μL of 0.1% DNase (2000 U/mL) were added to digest at 37° C. for 15 min. 750 μL of DMEM medium containing 5% FBS was added to stop the digestion. The cells were mixed well, and centrifuged at 1000 rpm for 5 minutes. Trypins/DNase mixture was removed, and 750 μL of Neurobasal medium (B-27, Glutamax, P/S) was added. The cells were mixed by gently pipetting with a pipette for 30 times. The cell suspension was filtered with a 40 µm filter and transferred to another new 50 mL centrifuge tube. 10 μL of the cell suspension was added to 90 μL of DMEM (diluted 10 times), and 10 μL of the liquid mixture was placed on a hemocytometer so that the suspension filled between the cover slip and the counting plate for counting. The cells in the four large grids of the plate were counted, wherein for the cells across the line, only the cells on the left and upper side lines were counted. The following formulas were used:
# (§5) Number of cells/mL=total number of cells in the four large grids/4×10^4/mL
# (§6) Total number of cells/mL=total number of cells in the four large grids/4×10^4/mL×dilution factor.
# (§7) After counting, the cells were diluted with Neurobasal selection medium so that 1 mL of Neurobasal culture medium contained 0.5×10^6 cells.
# (§8) 200 μL of PDL solution previously heated in a 37° C. water bath was added to each well of a 6-well plate, and incubated at 37° C. overnight to allow PDL to evenly coat the well plate. The PDL solution was absorbed and the plate was washed twice with PBS. Before use, the PBS remaining on the plate was absorbed and the cover was opened to dry the plate in a super clean bench. 2 mL of cell suspension was added to each well (37° C., 5% CO2), and the cells were cultured until adherence. The culture medium was replaced and the culture continued for 3 days, and then the growth status of neurons was observed. Every other 3 days, half of the medium was removed and replaced with fresh complete medium. The culture continued until the primary cortical neuron cells mature (usually mature on the 14th day of culture).
# (§9) After the primary cortical neuron cells have matured, appropriate amount of freshly prepared culture medium was added until final volume in each well was 2 mL. The experiment included a blank control group (Vehicle), a positive control group BDNF (10 ng/mL), a control compound group (500 nM), and 6 test compound groups (500 nM). Three repeats were set for each dose. After incubating at 37° C. for 10 min, the culture solution was discarded and the cells were washed with pre-chilled PBS, and then 40 μL of pre-chilled lysate (RIPA buffer 10 mL and protease and phosphatase inhibitor 100 μL) was added to each well for lysis on ice for 30 min. After lysis, the cell was crushed by ultrasonic cell crusher, centrifuged at 14000 rpm for 20 min at 4° C. The supernatant was transferred to a new 1.5 mL centrifuge tube to extract protein. Western blotting experiments were used to detect the protein levels of (A) p-TrkB and t-TrkB; (B) p-AKT and t-AKT.
# (§10) The software Sigmaplot 13.0 was used for statistical analysis of the data, and the data of each group was expressed as mean±standard error (x±SEM). […]
# TrkB receptor = molecular target: T1, TrkB receptor (Mus musculus, UniProt P15209); test: Western blotting of p-TrkB and t-TrkB in primary cortical neuron cells; format: cell-based; conditions: for Relative intensity of p-TrkB/t-TrkB protein: 10 min at 37° C., Vehicle = 100, n = 3
# T1 construct: The culture continued until the primary cortical neuron cells mature; endogenous in cells; host or cells: primary cortical neurons from E18 mouse embryos (N171-82Q WT male x B6C3F1/J female)
# Method: as §4, §5, §6, §7, §8, §9, §10
# Phospho-Akt S473 = test: ELISA analysis of Phospho-Akt S473 in primary cortical neuron cells; format: cell-based, mouse; conditions: 10 min at 37° C.
# Method: The primary cortical neuron cells were cultured in the same way as in Example 21, and after maturity, appropriate amount of freshly prepared culture medium was added until final volume in each well was 2 mL. The experiment included a blank control group (Vehicle), a positive control group BDNF (10 ng/mL), a control compound group (500 nM), and 6 test compound groups (500 nM). Three repeats were set for each dose. After incubating at 37° C. for 10 min, the culture solution was discarded and the cells were washed with pre-chilled PBS, and then 40 μL of pre-chilled lysate (RIPA buffer 10 mL and protease and phosphatase inhibitor 100 μL) was added to each well for lysis on ice for 30 min. After lysis, the cell was crushed by ultrasonic cell crusher, centrifuged at 14000 rpm for 20 min at 4° C. The supernatant was transferred to a new 1.5 mL centrifuge tube to extract protein. The p-Akt ELISA experiment quantitatively detected the intracellular p-Akt protein level.
# A series of p-Akt standard solutions with different concentrations were prepared, and the absorbance value was measured to make a standard curve. Phospho-Akt1 (Ser473) sandwich ELISA kit was purchased from Cell Signaling Technology (catalog number 7160). The antibody was coated in a 96-well plate at 4° C. overnight and was washed. The coated plate was blocked with 2% bovine serum albumin (BSA), and after sufficient washing, 100 μL of sample diluent (supplied in the kit) was added to each well to dilute the extracted protein. The plate was incubated overnight at 4° C. After washing 4 times with 200 μL of washing buffer (supplied in the kit), 100 μL/well of detection antibody was added and the plate was incubated at 37° C. for 1 hour. After 4 washes, 100 μL of HRP-conjugated secondary antibody (supplied in the kit) was added and the plate was incubated at 37° C. for 30 minutes. After the final wash, 100 μL of TMB substrate was added to each well and the plate was incubated at 37° C. for 10 minutes. TMB was use as a substrate to detect the signal, since TMB can be oxidized to produce a blue solution. The reaction was stopped by adding 100 μL/well stop solution, and the test result can remain stable within one hour after the stop of the reaction. The value of each well at 450 nm and 650 nm was detected using a microplate reader. The optical density (OD) was determined by subtracting the reading at 650 nm (disturbance from the solution itself) from the reading at 450 nm. According to the OD value corresponding to the standard curve, the p-Akt concentration in each well was obtained.
# the data of each group was expressed as mean standard error (x±SEM). The ratio of the detection results of each positive control group (BNDF), control compound group (the same control compound as in Example 21) and each test compound group to the blank control group was used as an indicator to compare the p-Akt test results of the positive control group, control compound group, and each test compound group. One-way ANOVA and LSD post-hoc test were used to compare the measurement data among multiple groups, and P<0.05 was considered statistically significant.
# T1 sequence (P15209 32-821): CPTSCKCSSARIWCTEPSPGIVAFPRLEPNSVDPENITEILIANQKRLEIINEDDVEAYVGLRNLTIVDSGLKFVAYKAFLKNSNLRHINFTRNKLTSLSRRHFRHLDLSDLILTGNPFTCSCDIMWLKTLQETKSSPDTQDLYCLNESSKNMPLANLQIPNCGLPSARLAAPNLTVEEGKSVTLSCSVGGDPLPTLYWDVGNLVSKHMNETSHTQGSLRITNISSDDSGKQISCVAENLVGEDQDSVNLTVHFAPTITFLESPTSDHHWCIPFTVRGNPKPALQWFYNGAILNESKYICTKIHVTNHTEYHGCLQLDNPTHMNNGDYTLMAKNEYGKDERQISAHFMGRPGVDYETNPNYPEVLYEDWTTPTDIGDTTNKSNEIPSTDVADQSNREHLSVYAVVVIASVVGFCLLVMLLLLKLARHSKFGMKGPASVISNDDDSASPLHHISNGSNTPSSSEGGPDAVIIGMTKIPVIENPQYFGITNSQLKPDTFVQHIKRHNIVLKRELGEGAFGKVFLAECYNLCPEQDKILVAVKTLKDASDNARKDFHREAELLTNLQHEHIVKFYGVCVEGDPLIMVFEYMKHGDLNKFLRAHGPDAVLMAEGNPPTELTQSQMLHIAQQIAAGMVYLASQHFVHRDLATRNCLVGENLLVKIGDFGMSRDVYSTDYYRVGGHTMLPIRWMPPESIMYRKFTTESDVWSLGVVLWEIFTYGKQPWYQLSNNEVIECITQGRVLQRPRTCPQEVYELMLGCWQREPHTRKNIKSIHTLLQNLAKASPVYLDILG
molecule,measurement,setting,value
"CC1=NN(c2ccccc2)C(=O)C1 [Edaravone, reference compound]",Volume percentage of cerebral infarction,[1],33.50 ± 7.21%
same,Neurobehavioral score (0 to 4 points),[2]; 6 h after ischemia,2 ± 0.18
same,Neurobehavioral score (0 to 4 points),[2]; 1 d after ischemia,2.36 ± 0.29
same,Neurobehavioral score (0 to 4 points),[2]; 2 d after ischemia,2.89 ± 0.31
same,Neurobehavioral score (0 to 4 points),[2]; 3 d after ischemia,2.38 ± 0.37
same,Neurobehavioral score (0 to 4 points),[2]; 4 d after ischemia,2 ± 0.33
same,Neurobehavioral score (0 to 4 points),[2]; 5 d after ischemia,2.14 ± 0.46
same,Neurobehavioral score (0 to 4 points),[2]; 6 d after ischemia,2 ± 0.31
same,Neurobehavioral score (0 to 4 points),[2]; 7 d after ischemia,1.67 ± 0.21
"[2H]c1c(-c2ccc(N3CCCCC3)cc2)oc2c(O)c(O)ccc2c1=O [Example 7, 3-deutero-7,8-dihydroxy-2-(4-(piperidin-1-yl)phenyl)-4H-chromen-4-one]",Relative intensity of p-AKT/t-AKT protein,AKT signaling pathway; 500 nM,220.514 ± 3.476
same,Relative intensity of p-TrkB/t-TrkB protein,TrkB receptor; 500 nM,218.156 ± 12.556
same,"Relative content of p-Akt protein (ELISA, ratio to blank control group)",Phospho-Akt S473; 500 nM,218.33±2.31%
"O=c1cc(-c2ccc(N3CCOCC3)cc2)oc2c(O)c(O)ccc12 [Control compound, reference compound]",Relative intensity of p-AKT/t-AKT protein,AKT signaling pathway; 500 nM,147.748 ± 4.832
same,Relative intensity of p-TrkB/t-TrkB protein,TrkB receptor; 500 nM,138.890 ± 15.547
same,"Relative content of p-Akt protein (ELISA, ratio to blank control group)",Phospho-Akt S473; 500 nM,138.33±2.08%
B1,Relative intensity of p-AKT/t-AKT protein,AKT signaling pathway; BDNF 10 ng/mL,229.306 ± 3.912
same,Increase of relative intensity of p-TrkB compared with Vehicle group,TrkB receptor; BDNF 10 ng/mL,2.74 times
same,Relative intensity of p-TrkB/t-TrkB protein,TrkB receptor; BDNF 10 ng/mL,274.260 ± 8.047
same,"Relative content of p-Akt protein (ELISA, ratio to blank control group)",Phospho-Akt S473; BDNF 10 ng/mL,231%

# From patent US20200390755A1, “COMPOUND FOR TREATING NERVOUS SYSTEM DISEASES AND USE THEREOF” (SHAANXI MICOT TECHNOLOGY CO., LTD., priority 2018, published 2020)
